Blank lines part the entries; values can stand above or below the compound they belong to.
Assays:
[1] = Pharmacokinetic parameters in SD rats; assay type: in vivo, Sprague-Dawley rats; conditions: single oral 3 mg/kg in 30% PEG400, plasma; for CL/F / AUC(0-t) / Cmax / Tmax / half-life: Sprague-Dawley, rat; for AUC(0-t): read-out: AUC0-t (mean ± SD); for half-life: read-out: t1/2 (mean ± SD) (converted)
Description: The pharmacokinetic study of each test compound was conducted in 4 Sprague-Dawley rats following a single oral administration of 3 mg/kg of the compound. The dose was prepared by dissolving test article in appropriate volume of 30% PEG400. The plasma samples were collected from the orbital plexus at 0.083, 0.25, 0.50, 1.0, 2.0, 4.0, 6.0, 8.0, 12 and 24 hours post dose, and the plasma concentrations were determined by a developed LC-MS/MS method.

CYP1A2 = biological target: T1, CYP1A2 (Homo sapiens, UniProt P05177); assay: P450-Glo CYP screening kit, CYP1A2 inhibition; assay type: in vitro ADME; conditions: luminescence, read-out: IC50 1A2
T1 construct: purchased Promega
T1 sequence (P05177 1-516): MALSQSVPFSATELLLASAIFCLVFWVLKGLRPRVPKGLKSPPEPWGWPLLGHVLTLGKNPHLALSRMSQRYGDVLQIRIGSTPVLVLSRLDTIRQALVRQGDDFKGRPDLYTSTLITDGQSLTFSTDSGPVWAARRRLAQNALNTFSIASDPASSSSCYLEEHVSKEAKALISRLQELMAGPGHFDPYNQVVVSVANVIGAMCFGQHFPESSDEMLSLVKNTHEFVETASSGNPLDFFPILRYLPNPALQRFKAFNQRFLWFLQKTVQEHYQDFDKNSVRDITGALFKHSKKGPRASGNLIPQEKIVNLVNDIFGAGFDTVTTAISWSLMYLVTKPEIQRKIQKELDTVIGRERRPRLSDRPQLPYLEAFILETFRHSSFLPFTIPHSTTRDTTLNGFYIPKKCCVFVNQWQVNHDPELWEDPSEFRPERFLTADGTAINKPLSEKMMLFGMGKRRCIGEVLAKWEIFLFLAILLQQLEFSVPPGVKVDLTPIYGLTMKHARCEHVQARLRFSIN
Excerpt: (§1) P450-Glo™ CYP Screening Kits for CYP1A2, CYP3A4 and CYP2C19 were purchased from Promega. […] Luminescence was quantified using a Victor 3 spectrophotometer (PerkinElmer).

SD rats = assay: Urinary glucose excretion in SD rats; assay type: in vivo; conditions: 1 mg/kg oral; for Urinary Glucose Excretion in Rats, 0-4 h (mean ± SD) / Urinary Glucose Excretion in Rats, 0-24 h (mean ± SD) / Urinary Glucose Excretion in Rats, 4-24 h (mean ± SD): glucose 2 g/kg 1 h post dose
Description: Each test compound was dissolved in 30% PEG400 and administered orally to overnight-fasted SD rats by gavage at the dose level of 1 mg/kg. Control rats were given 30% PEG400 only. One hour post dosing, glucose solution (2 g/kg, 10 mL/kg) was administered by oral gavage. Urine was collected within metabolic cages from 0 to 4 hours, and 4 to 24 hours post-dosing for urine volume and glucose measurement. Food was removed 16 hours before dosing and then provided 4 hours after dosing. Water was supplied ad libitum. The concentration of urinary glucose was determined at 4 hours and 24 hours post-dose using a biochemistry analyzer. Results were recorded for the periods 0-4 hours, 4-24 hours and 0-24 hours, and expressed as a percentage of the urinary glucose excretion (UGE) seen with reference compound A, which was run as a positive control in all experiments.

CYP2C19 = biological target: T2, CYP2C19 (Homo sapiens, UniProt P33261); assay: P450-Glo CYP screening kit, CYP2C19 inhibition; assay type: in vitro ADME; conditions: luminescence, read-out: IC50 2C19
T2 construct: purchased Promega
Excerpt: as §1

CYP3A4 = biological target: T3, CYP3A4 (Homo sapiens, UniProt P08684); assay: P450-Glo CYP screening kit, CYP3A4 inhibition; assay type: in vitro ADME; conditions: luminescence, read-out: IC50 3A4
T3 construct: purchased Promega
Excerpt: as §1

[2] = Pharmacokinetic parameters in Beagle dogs; assay type: in vivo; conditions: dog, single oral 1 mg/kg in 30% PEG400, plasma; for AUC(0-t): read-out: AUC0-t (mean ± SD); for CL/F: read-out: CL/F (mean ± SD) (converted); for Cmax: read-out: Cmax (mean ± SD); for Tmax: read-out: tmax (mean ± SD)
Description: The pharmacokinetic study of each test compound was conducted in three Beagle dogs following a single oral administration of 1 mg/kg of the compound. The dose was prepared by dissolving test article in appropriate volume of 30% PEG400. The plasma samples were collected from the cephalic vein pre-dose and at 0.25, 0.50, 1.0, 2.0, 4.0, 6.0, 8.0, 12 and 24 hours post dose, and the plasma concentrations were determined by a developed LC-MS/MS method.

beagle dogs = assay: Urinary glucose excretion in beagle dogs; assay type: in vivo
Description: Each test compound was dissolved in 10% PEG400 and administered orally to overnight-fasted beagle dogs by gavage at the dose level of 0.03 mg/kg. Control dogs were given 10% PEG400 only. One hour post dosing, glucose solution (2 g/kg, 5 mL/kg) was administered by oral gavage. Urine was collected within metabolic cages from 0 to 8 hours, and 8 to 24 hours post-dosing for urine volume and glucose measurement. Food was removed 16 hours before dosing and then provided 3 hours after dosing. Water was supplied ad libitum. The concentration of urinary glucose was determined at 8 hours and 24 hours post-dose using a biochemistry analyzer.

[3] = separate experiment (Table 4A), 0-24 h
[4] = 0.03 mg/kg oral, glucose 2 g/kg 1 h post dose, 0-8 h (Table 4)
[5] = 0.03 mg/kg oral, glucose 2 g/kg 1 h post dose, 0-24 h (Table 4)
[6] = 0.03 mg/kg oral, glucose 2 g/kg 1 h post dose, 8-24 h (Table 4)

T2 sequence (P33261 whole entry): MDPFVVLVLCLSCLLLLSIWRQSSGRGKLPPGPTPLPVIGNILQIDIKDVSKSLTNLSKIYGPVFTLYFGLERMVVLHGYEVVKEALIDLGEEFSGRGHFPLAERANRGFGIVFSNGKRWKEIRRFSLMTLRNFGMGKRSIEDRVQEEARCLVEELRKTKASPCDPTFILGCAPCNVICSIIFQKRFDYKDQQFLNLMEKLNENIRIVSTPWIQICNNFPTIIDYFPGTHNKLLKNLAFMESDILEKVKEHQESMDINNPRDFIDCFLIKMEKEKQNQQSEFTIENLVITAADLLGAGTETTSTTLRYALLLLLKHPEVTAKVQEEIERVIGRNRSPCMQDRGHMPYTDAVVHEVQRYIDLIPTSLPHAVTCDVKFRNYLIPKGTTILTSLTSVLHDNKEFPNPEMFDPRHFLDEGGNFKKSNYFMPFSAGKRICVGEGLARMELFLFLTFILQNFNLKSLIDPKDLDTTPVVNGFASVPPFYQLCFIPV
T3 sequence (P08684 whole entry): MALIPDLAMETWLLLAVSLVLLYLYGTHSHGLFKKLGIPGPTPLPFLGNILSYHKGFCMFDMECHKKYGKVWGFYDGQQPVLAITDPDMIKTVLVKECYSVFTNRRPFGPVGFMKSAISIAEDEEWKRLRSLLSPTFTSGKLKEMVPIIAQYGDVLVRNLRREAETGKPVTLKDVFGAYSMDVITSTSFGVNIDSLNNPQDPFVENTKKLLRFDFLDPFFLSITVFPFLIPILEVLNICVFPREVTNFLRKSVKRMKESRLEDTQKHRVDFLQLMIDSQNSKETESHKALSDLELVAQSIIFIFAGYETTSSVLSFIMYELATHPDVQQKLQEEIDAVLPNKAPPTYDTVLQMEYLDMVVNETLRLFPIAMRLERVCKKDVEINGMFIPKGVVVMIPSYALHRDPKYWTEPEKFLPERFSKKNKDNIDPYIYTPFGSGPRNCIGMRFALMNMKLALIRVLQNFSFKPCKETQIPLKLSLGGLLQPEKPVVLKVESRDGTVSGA

SMILES: [2H]C([2H])([2H])Oc1ccc(Cc2cc([C@]3([2H])O[C@H](CO)[C@@H](O)[C@H](O)[C@H]3O)ccc2Cl)cc1 [24e, (2S,3R,4R,5S,6R)-2-(4-chloro-3-(4-(methoxy-d3)benzyl)phenyl)-6-(hydroxymethyl)tetrahydro-2H-pyran-2-d-3,4,5-triol]
Urinary Glucose Excretion in Rats, 0-4 h, % relative to Ref A (SD rats): 162%
Urinary Glucose Excretion in Rats, 0-24 h, % relative to Ref A (SD rats): 101%
Urinary Glucose Excretion in Rats, 4-24 h, % relative to Ref A (SD rats): 97%
Urinary Glucose Excretion in Rats, 0-4 h (mean ± SD) (SD rats): 236 ± 48 mg
Urinary Glucose Excretion in Rats, 0-24 h (mean ± SD) (SD rats): 2525 ± 266 mg
Urinary Glucose Excretion in Rats, 4-24 h (mean ± SD) (SD rats): 2288 ± 287 mg

SMILES: OC[C@H]1O[C@@H](c2ccc(Cl)c(Cc3ccc(C4CC4)cc3)c2)[C@H](O)[C@@H](O)[C@@H]1O [Ref C, (2S,3R,4R,5S,6R)-2-(4-chloro-3-(4-cyclopropylbenzyl)phenyl)-6-(hydroxymethyl)tetrahydro-2H-pyran-3,4,5-triol, reference compound]
CL/F [1]: 5.2 mL/min/kg
Cmax [1]: 1050 ± 230 ng/mL
Tmax [1]: 3 ± 1.15 h
AUC(0-t) [1]: 9770 ± 2180 ng·h/mL
half-life [1]: 4.28 ± 0.8 h

SMILES: OC[C@H]1O[C@@H](c2ccc(Cl)c(Cc3ccc(OCCOCC(F)F)cc3)c2)[C@H](O)[C@@H](O)[C@@H]1O [Ref F, (2S,3R,4R,5S,6R)-2-(4-chloro-3-(4-(2-(2,2-difluoroethoxy)ethoxy)benzyl)phenyl)-6-(hydroxymethyl)tetrahydro-2H-pyran-3,4,5-triol, reference compound]
AUC(0-t) [2]: 4920 ± 484 ng·h/mL
CL/F [2]: 3.17 mL/min/kg
Cmax [2]: 889 ± 65.4 ng/mL
Tmax [2]: 0.4 ± 0.1 h
Urinary Glucose Excretion in Dogs, 0-8 h (mean ± SD) (beagle dogs; separate experiment (Table 4A), 0-8 h): 1927 ± 307 mg
Urinary Glucose Excretion in Dogs, 0-24 h (mean ± SD) (beagle dogs; [3]): 13438 ± 5237 mg
Urinary Glucose Excretion in Dogs, 8-24 h (mean ± SD) (beagle dogs; separate experiment (Table 4A), 8-24 h): 11511 ± 5327 mg

SMILES: OC[C@H]1O[C@@H](c2ccc(Cl)c(Cc3ccc(OCCOC4CC4)cc3)c2)[C@H](O)[C@@H](O)[C@@H]1O [Ref G, (2S,3R,4R,5S,6R)-2-(4-chloro-3-(4-(2-cyclopropoxyethoxy)benzyl)phenyl)-6-(hydroxymethyl)tetrahydro-2H-pyran-3,4,5-triol, reference compound]
CL/F [1]: 11.8 mL/min/kg
Cmax [1]: 594 ± 85.8 ng/mL
Tmax [1]: 1.88 ± 1.55 h
AUC(0-t) [1]: 4240 ± 405 ng·h/mL
half-life [1]: 3.39 ± 0.68 h

SMILES: [2H][C@@]1(c2ccc(Cl)c(Cc3ccc(OCC)cc3)c2)O[C@H](CO)[C@@H](O)[C@H](O)[C@H]1O [compound 5, (2S,3R,4R,5S,6R)-2-(4-chloro-3-(4-ethoxybenzyl)phenyl)-6-(hydroxymethyl)tetrahydro-2H-pyran-2-d-3,4,5-triol]
IC50 (CYP1A2): 500 to 1000 µM
Urinary Glucose Excretion in Rats, 0-24 h (mean ± SD) (SD rats): 2650 ± 385 mg
Urinary Glucose Excretion in Rats, 4-24 h (mean ± SD) (SD rats): 2457 ± 369 mg
IC50 (CYP2C19): 104 µM
IC50 (CYP3A4): 500 to 1000 µM
Urinary Glucose Excretion in Dogs, 0-8 h (mean ± SD) (beagle dogs; [4]): 3765 ± 808 mg
Urinary Glucose Excretion in Dogs, 0-24 h (mean ± SD) (beagle dogs; [5]): 12676 ± 2150 mg
Urinary Glucose Excretion in Dogs, 8-24 h (mean ± SD) (beagle dogs; [6]): 8910 ± 1700 mg

SMILES: [2H]C([2H])(c1ccc(OC([2H])([2H])C([2H])([2H])[2H])cc1)c1cc([C@@H]2O[C@H](CO)[C@@H](O)[C@H](O)[C@H]2O)ccc1Cl [compound 16, (2S,3R,4R,5S,6R)-2-(4-chloro-3-((4-(ethoxy-d5)phenyl)methyl-d2)phenyl)-6-(hydroxymethyl)tetrahydro-2H-pyran-3,4,5-triol]
CL/F [1]: 2.3 mL/min/kg
AUC(0-t) [1]: 21000 ± 4370 ng·h/mL
Cmax (mean ± SD) [1]: 2683 ± 471 ng/mL
t1/2 (mean ± SD) [1]: 5.70 ± 0.63 h
tmax (mean ± SD) [1]: 1.00 ± 0.71 h
Urinary Glucose Excretion in Dogs, 0-8 h (mean ± SD) (beagle dogs; [4]): 4362 ± 818 mg
Urinary Glucose Excretion in Dogs, 0-24 h (mean ± SD) (beagle dogs; [5]): 15357 ± 2514 mg
Urinary Glucose Excretion in Dogs, 8-24 h (mean ± SD) (beagle dogs; [6]): 10995 ± 1987 mg

SMILES: [2H]C([2H])(c1ccc(C2CC2)cc1)c1cc([C@@H]2O[C@H](CO)[C@@H](O)[C@H](O)[C@H]2O)ccc1Cl [compound 54, (2S,3R,4R,5S,6R)-2-(4-chloro-3-((4-cyclopropylphenyl)methyl-d2)phenyl)-6-(hydroxymethyl)tetrahydro-2H-pyran-3,4,5-triol]
CL/F [1]: 4.4 mL/min/kg
Cmax [1]: 1270 ± 138 ng/mL
Tmax [1]: 2 h
AUC(0-t) [1]: 10600 ± 1600 ng·h/mL
half-life [1]: 6.08 ± 1.92 h

SMILES: [2H]C([2H])(c1ccc(OCCOCC(F)F)cc1)c1cc([C@@H]2O[C@H](CO)[C@@H](O)[C@H](O)[C@H]2O)ccc1Cl [compound 87, (2S,3R,4R,5S,6R)-2-(4-chloro-3-((4-(2-(2,2-difluoroethoxy)ethoxy)phenyl)methyl-d2)phenyl)-6-(hydroxymethyl)-tetrahydro-2H-pyran-3,4,5-triol]
AUC(0-t) [2]: 8880 ± 1440 ng·h/mL
CL/F [2]: 1.85 mL/min/kg
Cmax [2]: 1580 ± 282 ng/mL
Tmax [2]: 0.6 ± 0.4 h
Urinary Glucose Excretion in Dogs, 0-24 h (mean ± SD) (beagle dogs; [3]): 16858 ± 674 mg

SMILES: [2H]C([2H])(COc1ccc(Cc2cc([C@@H]3O[C@H](CO)[C@@H](O)[C@H](O)[C@H]3O)ccc2Cl)cc1)OC1CC1 [compound 95, (2S,3R,4R,5S,6R)-2-(4-chloro-3-(4-(2-cyclopropoxy(ethoxy-2,2-d2))benzyl)phenyl)-6-(hydroxymethyl)tetrahydro-2H-pyran-3,4,5-triol]
CL/F [1]: 9.2 mL/min/kg
Cmax [1]: 710 ± 76.4 ng/mL
Tmax [1]: 2.13 ± 1.44 h
AUC(0-t) [1]: 5240 ± 328 ng·h/mL
half-life [1]: 4.83 ± 1.42 h

The next lines start with results.

CL/F [1]: 2.4 mL/min/kg
AUC(0-t) [1]: 20300 ± 1610 ng·h/mL
Cmax (mean ± SD) [1]: 2923 ± 393 ng/mL
t1/2 (mean ± SD) [1]: 4.56 ± 0.64 h
tmax (mean ± SD) [1]: 0.88 ± 0.75 h
SMILES: [2H]C([2H])(C)Oc1ccc(Cc2cc([C@@H]3O[C@H](CO)[C@@H](O)[C@H](O)[C@H]3O)ccc2Cl)cc1 [24a, (2S,3R,4R,5S,6R)-2-(4-chloro-3-(4-(ethoxy-1,1′-d)benzyl)phenyl)-6-(hydroxymethyl)tetrahydro-2H-pyran-3,4,5-triol]

IC50 (CYP1A2): > 1000 µM
CL/F [1]: 7.18 mL/min/kg
AUC(0-t) [1]: 6680 ± 350 ng·h/mL
Cmax (mean ± SD) [1]: 1494 ± 428 ng/mL
t1/2 (mean ± SD) [1]: 6.34 ± 2.79 h
tmax (mean ± SD) [1]: 1.19 ± 0.94 h
IC50 (CYP2C19): 120 µM
IC50 (CYP3A4): ~1000 µM
SMILES: [2H]C([2H])([2H])Oc1ccc(Cc2cc([C@@H]3O[C@H](CO)[C@@H](O)[C@H](O)[C@H]3O)ccc2Cl)cc1 [24d, (2S,3R,4R,5S,6R)-2-(4-chloro-3-(4-(methoxy-d3)benzyl)phenyl)-6-(hydroxymethyl)tetrahydro-2H-pyran-3,4,5-triol]
Urinary Glucose Excretion in Rats, 0-4 h, % relative to Ref A (SD rats): 131%
Urinary Glucose Excretion in Rats, 0-24 h, % relative to Ref A (SD rats): 92%
Urinary Glucose Excretion in Rats, 4-24 h, % relative to Ref A (SD rats): 89%
Urinary Glucose Excretion in Rats, 0-4 h (mean ± SD) (SD rats): 251 ± 44 mg
Urinary Glucose Excretion in Rats, 0-24 h (mean ± SD) (SD rats): 2234 ± 199 mg
Urinary Glucose Excretion in Rats, 4-24 h (mean ± SD) (SD rats): 1983 ± 167 mg

Reference: patent US9061060B2, “Deuterated benzylbenzene derivatives and methods of use” (Theracos Inc., priority 2008, dated 2015)
